The results in this text go back to patent publication US8501950B2, “N-cyanoalkylanthranilamides as insecticides” (Syngenta Crop Protection LLC, priority 2006, dated 2013).

Where only a bound is given, the exact number is not on record here.

Common to all, as to format: in vivo
The test system of assay [1] is Spodoptera littoralis (Egyptian Cotton Leafworm). Briefly: Example B1: activity against Spodoptera littoralis, sprayed cotton leaf discs, L1 larvae. Conditions: foliar, 72 h. The text has this: Activity Against Spodoptera littoralis (Egyptian Cotton Leafworm)
Cotton leaf discs are placed on agar in a 24-well microtiter plate and sprayed with test solutions. After drying, the leaf discs are infested with 5 L1 larvae. The samples are checked for mortality, repellent effect, feeding behaviour, and growth inhibition 3 days after treatment (DAT).

In assay [2] the test system is Heliothis virescens (Tobacco Budworm). Kind of assay: Example B2: activity against Heliothis virescens, eggs on artificial diet. Conditions: 96 h. As to the method:
Activity Against Heliothis virescens (Tobacco Budworm)
Eggs (0-24 h old) are placed in 24-well microtiter plate on artificial diet and sprayed with test solutions. After an incubation period of 4 days, samples are checked for egg mortality, larval mortality, and growth inhibition.

The subject of assay [3] is Plutella xvlostella (Diamond Back Moth). Kind of assay: Example B3: activity against Plutella xylostella, L2 larvae on artificial diet. Conditions: 120 h. On the procedure:
Activity Against Plutella xvlostella (Diamond Back Moth)
24-well microtiter plate (MTP) with artificial diet is sprayed with test solutions. After drying, the MTP's are infested with larvae (L2)(10-15 per well). After an incubation period of 5 days, samples are checked for larval mortality, antifeedant and growth inhibition.

Assay [4] has as its system Thrips tabaci (Onion Thrips). Kind of assay: Example B7: activity against Thrips tabaci, sunflower leaf discs. Conditions: foliar, 144 h. On the procedure: Activity Against Thrips tabaci (Onion Thrips)
Sunflower leaf discs are placed on agar in a 24-well microtiter plate and sprayed with test solutions. After drying, the leaf discs are infested with a thrips population of mixed ages. After an incubation period of 6 days, samples are checked for mortality and special effects (e.g. phytotoxicity).

Assay [5] relates to Tetranychus urticae (Two-Spotted Spider Mite). Briefly: Example B8: activity against Tetranychus urticae, bean leaf discs. The text has this:
Activity Against Tetranychus urticae (Two-Spotted Spider Mite)
Bean leaf discs on agar in 24-well microtiter plates are sprayed with test solutions. After drying, the leaf discs are infested with mite populations of mixed ages. 8 days later, discs are checked for egg mortality, larval mortality, and adult mortality.

For assay [6], the system named is Spodoptera littoralis (Cotton Leafworm). Kind of assay: Example B9: systemic insecticide test for Spodoptera littoralis, maize seedlings at 12.5 ppm. On the procedure: Systemic Insecticide Test for Spodoptera littoralis (Cotton Leafworm)
[…] Seedlings are allowed to grow for six days. Subsequently leaves are cut and placed in a Petri dish (5 cm diameter), inoculated with twelve to fifteen 1st instar S. littoralis larvae and incubated for four days in a growth chamber (25° C., 50% r.h., 18:6 L:D photo period). Number of alive insects are counted and percentage of dead calculated. Tests were conducted with one replicate.

For assay [7], the system named is Cydia pomonella (Codling Moth). Kind of assay: Example B10: activity against Cydia pomonella, sprayed diet cubes. Conditions: 336 h. On the procedure: Activity Against Cydia pomonella (Codling Moth)
Standard Cydia diet cubes (1.5 cm width) are pierced with a tooth-pick and are immersed in liquid paraffin (ca. 80° C.). After the paraffin coat has hardened, an aqueous emulsion containing 12.5 ppm of active ingredient is applied using a De Vilbis sprayer (25 ml, 1 bar). After the spray coating has dried, the cubes are put into plastic containers which are then populated with two freshly hatched Cydia pomonella (1st instar). The containers are then closed with a plastic cap. After 14 days incubation at 26° C. and 40-60% relative humidity, the survival rate of the caterpillars as well as their growth regulation is determined.

One may read the mortality as the share of the test organisms that died. Read a low mortality as a weak lethal effect. For `Cc1cc(I)cc(C(=O)NC(C)(C#N)C2CC2)c1NC(=O)c1cc(Cl)nn1-c1ncccc1Cl` (centres unmarked) [Compound T1.1.107], the mortality at 200 ppm in assay [1] is over 80%; in assay [2], over 80%; in assay [3] it was over 80%; in assay [4], over 80%; in assay [5] (Tetranychus urticae, foliar, 192 h) it was 80%. For the same molecule, the activity in words result in assay [5] (in vivo) was “good activity”. Besides, the mortality at 12.5 ppm in assay [6] and in assay [7] was over 80% each time.
